For data set [1], the system named is 97 targets (GPCRs, ion channels, transporters, enzymes, kinases). Briefly: Secondary pharmacology panel (Eurofins CEREP). Conditions: compared with Compound 6.
Method: Secondary pharmacology assays were performed at Eurofins CEREP using standard experimental techniques. Specifically, radioligand binding assays were used to assess the ability of test compounds to interact with G-protein coupled receptors (GPCRs), ion channels, and transmembrane transporters. Assays measuring substrate turnover or phosphorylation by isolated proteins were used for enzyme and kinase targets, allowing direct determination of the mode of action of the tested compounds.
Data set [2] can be described thus: Aqueous thermodynamic solubility, shake-flask. The settings on record: aqueous phosphate buffer, 25 °C, pH 7.4, aqueous buffer, thermodynamic from solid, phosphate buffer 0.1 M, pH 7.4, 24 hours. The format is physicochemical. The essentials:
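After 24 h stirring at 25° C. in pH 7.4 phosphate buffer (0.1 M), solid-free supernatant from two centrifugations was quantified by UPLC/MS/MS after dilution in water. Compound was added as dried material after DMSO removal.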

In data set [3] the test system is POLR2A Ser2 phosphorylation (CDK9). The data set is described as follows: POLR2A Ser2 phosphorylation imaging assay in MCF-7 cells. The settings on record: Homo sapiens, MCF7, 2 h, MCF-7 cells, 2 hours; read-out: POLR2A Ser2 phosphorylation IC50. The format is cell-based. The essentials: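 MCF-7 cells were fixed, permeabilised and immunostained for POLR2A phospho-Ser2, then imaged by high-content microscopy. Levels were normalised to controls and IC50 values derived.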

Another data set deals with CDK1:CCNB1 (Homo sapiens (Human), UniProt P06493). The data set is described as follows: NanoBRET assay in MCF-7 cells, CDK1. The format is cell-based. Conditions: NanoBRET, transfected MCF-7 cells, 2 hours; n = 1 or average; read-out: CDK1 IC50. The essentials:
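Intracellular target engagement was measured by NanoBRET ratio (460 nm/610 nm) in live MCF-7 cells transiently carrying CDK4:CCND1 (Tracer K-7, 100 μM stock) or CDK1:CCNB1 (Tracer K-9, 400 μM stock).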

Data set [4] in a line: CLint assessment in human liver microsomes (HLM). It counts as in vitro ADME. The settings on record: 1 μM. A digest of the protocol: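 Microsomes preincubated 8 min with NADPH, then compound added and incubated 30 min at 37° C. Remaining compound measured by LC-MS/MS. t1/2 and CLint calculated, with CLint scaled to incubation volume per mg microsomal protein.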
The next data set deals with MCF-7 cells. The data set is described as follows: Cellular proliferation EdU assay, MCF-7. Conditions: Homo sapiens, MCF7, 48 h, EdU assay, two days; read-out: MCF-7 IC50. It counts as cell-based. A digest of the protocol:
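MCF-7 (800 cells/well) and OVCAR3 (1200 cells/well) in RPMI with 10% FBS exposed to compounds for two days at 37 °C.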

The test system of another data set is SKOV3 cells. Briefly: Cell proliferation CyQUANT assay, SKOV3. The settings on record: Homo sapiens, SK-OV-3, 168 h; CyQUANT cell counts, 7 days. It counts as cell-based. As to the method: (§1) An imaging-based assay was used to investigate changes in cell number in OVCAR3 cells (CCNE1-amplified ovarian cancer cell line) and SKOV3 cells (non-amplified ovarian cancer cell line) treated with test compounds.
(§2) Cells were plated in 384 well plates (Perkin-Elmer 6057300) in RPMI-1640/10% FBS/1× L-Glu at 500 cells per well in 30 μL and incubated with test compound at 37° C. and 5% CO2 for 7 days. Cells were then stained using the CyQuant Direct Cell Proliferation Assay Kit (Thermo Cat #C7026) in accordance with the kit protocol. The stained cells were imaged using an Operetta high content imager to generate cell counts and IC50 values were calculated relative to DMSO controls.

A further data set has as its system OVCAR3 cells. Briefly: Cell proliferation CyQUANT assay, OVCAR3. The format is cell-based. The settings on record: Homo sapiens, OVCAR-3, 168 h; CyQUANT cell counts, 7 days. The method, then: as §1, §2

Values after ≈ are worked out from the molar mass of the structure shown. A value given as a limit tells only on which side of the number the result lay.

Sequence of CDK1:CCNB1 (P06493 whole entry): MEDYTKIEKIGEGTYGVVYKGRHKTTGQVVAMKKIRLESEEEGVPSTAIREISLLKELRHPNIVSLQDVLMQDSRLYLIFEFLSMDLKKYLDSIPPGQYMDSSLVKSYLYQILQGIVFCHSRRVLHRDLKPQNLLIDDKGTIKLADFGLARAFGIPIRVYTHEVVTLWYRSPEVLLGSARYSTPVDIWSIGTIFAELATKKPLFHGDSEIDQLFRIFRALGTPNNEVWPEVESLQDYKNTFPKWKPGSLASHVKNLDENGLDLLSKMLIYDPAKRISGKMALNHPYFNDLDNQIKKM
Sequence of CDK1:CCNB1 (P14635 whole entry partner): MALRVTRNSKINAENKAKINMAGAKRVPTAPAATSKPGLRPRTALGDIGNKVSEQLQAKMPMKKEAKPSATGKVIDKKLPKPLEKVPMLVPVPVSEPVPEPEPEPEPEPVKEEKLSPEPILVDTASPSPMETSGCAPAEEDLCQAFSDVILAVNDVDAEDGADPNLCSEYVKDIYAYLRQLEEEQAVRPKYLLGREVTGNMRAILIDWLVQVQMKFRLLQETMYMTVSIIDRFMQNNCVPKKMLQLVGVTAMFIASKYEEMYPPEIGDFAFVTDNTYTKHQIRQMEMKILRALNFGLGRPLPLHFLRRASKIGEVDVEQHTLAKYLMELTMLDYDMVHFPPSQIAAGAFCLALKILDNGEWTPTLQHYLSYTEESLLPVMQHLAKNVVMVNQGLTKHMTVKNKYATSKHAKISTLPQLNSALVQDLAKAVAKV

`CCn1cnc2c(N[C@H]3CCN(S(=O)(=O)NC)C3)nc(-c3cccc4c3CC[C@]4(C)O)nc21` (relative stereo) [Example 3, (S)-3-((9-ethyl-2-((R*)-1-hydroxy-1-methyl-2,3-dihydro-1H-inden-4-yl)-9H-purin-6-yl)amino)-N-methylpyrrolidine-1-sulfonamide]: the secondary pharmacology profile result in data set [1] was “broadly similar secondary pharmacology to Compound 6”. Moreover, in data set [2], the solubility at 24 h came out at 48 µM (≈ 22.6 µg/mL). Besides, the 50% inhibitory concentration (IC50) in data set [3] was determined as 6.5 µM; at CDK1:CCNB1 it was 0.636 µM; with MCF-7 cells, 0.969 µM. Further, the “HLM CLint” value in data set [4] worked out at 45.2 µL/min/mg.

As to `CCn1cnc2c(N[C@@H]3CN(S(=O)(=O)c4ncc[nH]4)C[C@H]3F)nc(N[C@@H](CO)C3CC3)nc21` (relative stereo) [Example 17, (R)-2-((6-(((3R*,4R*)-1-((1H-imidazol-2-yl)sulfonyl)-4-fluoropyrrolidin-3-yl)amino)-9-ethyl-9H-purin-2-yl)amino)-2-cyclopropylethan-1-ol], the IC50 was 1.16 µM with SKOV3 cells, 3.9 µM in data set [3], 0.114 µM at CDK1:CCNB1 and 0.053 µM with OVCAR3 cells. The solubility at 24 h in data set [2] was determined as 280 µM (≈ 134 µg/mL). Further, the “HLM CLint” value in data set [4] worked out at 46 µL/min/mg.

Turning to `CCNS(=O)(=O)N1CC[C@H](Nc2nc(N[C@@H](CO)C3CC3)nc3c2ncn3C)C1` [Example 19, (S)-3-((2-(((R)-1-cyclopropyl-2-hydroxyethyl)amino)-9-methyl-9H-purin-6-yl)amino)-N-ethylpyrrolidine-1-sulfonamide], the half-inhibitory concentration (IC50) in the data set with SKOV3 cells was determined as 4.04 µM; in data set [3] it was 17.6 µM; at CDK1:CCNB1, 0.342 µM; in the data set with OVCAR3 cells, 0.201 µM; with MCF-7 cells, 0.538 µM.

`CCNS(=O)(=O)N1CC[C@H](Nc2nc(N[C@@H](CC)[C@@H](C)O)nc3c2ncn3C)C1` [Example 53, (S)—N-ethyl-3-((2-(((2R,3S)-2-hydroxypentan-3-yl)amino)-9-methyl-9H-purin-6-yl)amino)pyrrolidine-1-sulfonamide]: the IC50 in the data set with SKOV3 cells was 10.7 µM; in data set [3], more than 30 µM; on CDK1:CCNB1 it was 1.8 µM; in the data set on OVCAR3 cells, 0.373 µM; in the data set on MCF-7 cells, 1.43 µM.
